Series [1] concerns the target T1, ATP-binding cassette sub-family C member 4 (Homo sapiens, UniProt O15439).
T1 sequence (O15439 whole entry): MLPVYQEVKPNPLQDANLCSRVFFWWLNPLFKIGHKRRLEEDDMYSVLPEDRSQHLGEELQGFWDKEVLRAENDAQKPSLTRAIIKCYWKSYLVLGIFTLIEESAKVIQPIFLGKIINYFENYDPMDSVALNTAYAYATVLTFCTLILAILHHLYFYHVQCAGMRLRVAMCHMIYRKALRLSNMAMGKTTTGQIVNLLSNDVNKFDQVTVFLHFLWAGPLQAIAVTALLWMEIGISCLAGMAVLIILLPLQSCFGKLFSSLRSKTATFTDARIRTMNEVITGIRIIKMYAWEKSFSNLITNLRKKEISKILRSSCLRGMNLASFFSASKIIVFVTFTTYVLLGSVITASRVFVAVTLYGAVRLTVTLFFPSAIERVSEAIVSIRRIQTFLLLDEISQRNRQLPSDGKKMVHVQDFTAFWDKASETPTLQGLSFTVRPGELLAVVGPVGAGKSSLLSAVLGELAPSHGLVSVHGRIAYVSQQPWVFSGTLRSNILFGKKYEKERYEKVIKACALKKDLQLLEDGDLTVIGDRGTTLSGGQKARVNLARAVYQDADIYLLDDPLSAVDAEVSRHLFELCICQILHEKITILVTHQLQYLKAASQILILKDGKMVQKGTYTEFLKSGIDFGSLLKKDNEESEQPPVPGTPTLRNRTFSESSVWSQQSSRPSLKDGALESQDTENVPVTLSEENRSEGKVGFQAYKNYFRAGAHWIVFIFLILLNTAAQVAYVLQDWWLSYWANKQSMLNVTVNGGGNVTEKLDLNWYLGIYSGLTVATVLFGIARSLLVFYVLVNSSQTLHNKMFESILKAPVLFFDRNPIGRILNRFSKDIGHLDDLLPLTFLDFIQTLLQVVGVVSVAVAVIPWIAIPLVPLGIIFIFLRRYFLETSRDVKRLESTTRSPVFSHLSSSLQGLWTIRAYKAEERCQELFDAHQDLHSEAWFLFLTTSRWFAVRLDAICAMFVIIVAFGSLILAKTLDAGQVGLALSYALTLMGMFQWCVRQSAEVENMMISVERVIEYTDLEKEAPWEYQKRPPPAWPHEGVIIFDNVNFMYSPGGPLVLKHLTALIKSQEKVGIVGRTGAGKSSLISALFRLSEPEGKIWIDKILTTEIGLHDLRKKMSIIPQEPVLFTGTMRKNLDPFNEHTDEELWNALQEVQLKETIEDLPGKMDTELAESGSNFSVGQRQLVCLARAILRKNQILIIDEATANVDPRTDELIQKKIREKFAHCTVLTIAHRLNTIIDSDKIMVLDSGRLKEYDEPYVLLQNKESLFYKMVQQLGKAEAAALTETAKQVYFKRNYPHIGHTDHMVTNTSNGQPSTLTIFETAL
Description: Inhibition of human MRP4 overexpressed in Sf9 cell membrane vesicles assessed as uptake of [3H]-estradiol-17beta-D-glucuronide in presence of ATP and GSH measured after 20 mins by membrane vesicle transport assay. It counts as ADME, cell-based.

Series [2] is described as follows: Ratio of drug concentration at steady state in human at 60 to 120 mg, po QD after 24 hrs to IC50 for human BSEP overexpressed in Sf9 insect cells. It counts as ADME, organism-based. The note with it: in vivo.
A short description of series [3]: Drug concentration at steady state in human at 60 to 120 mg, po QD after 24 hrs. The note with it: in vivo, read-out: Css. It counts as ADME, organism-based.
Series [4] can be described thus: Ratio of drug concentration at steady state in human at 60 to 120 mg, po QD after 24 hrs to IC50 for human MRP4 overexpressed in Sf9 insect cells. It counts as ADME, organism-based. The following applies: in vivo.
Series [5] concerns the target ATP-binding cassette sub-family C member 2 (Homo sapiens, UniProt Q92887). Description: Inhibition of human MRP2 overexpressed in Sf9 cell membrane vesicles assessed as uptake of [3H]-estradiol-17beta-D-glucuronide in presence of ATP and GSH measured after 20 mins by membrane vesicle transport assay.
The nature of series [6]: AUC in human at 60 to 120 mg, po QD after 24 hrs. The following applies: in vivo. In kind it is ADME, organism-based.
Series [7] deals with ATP-binding cassette sub-family C member 3 (Homo sapiens, UniProt O15438). The series is described as follows: Inhibition of human MRP3 overexpressed in Sf9 insect cell membrane vesicles assessed as uptake of [3H]-estradiol-17beta-D-glucuronide in presence of ATP and GSH measured after 10 mins by membrane vesicle transport assay. It counts as ADME, cell-based.
ATP-binding cassette sub-family C member 3, sequence (O15438 whole entry): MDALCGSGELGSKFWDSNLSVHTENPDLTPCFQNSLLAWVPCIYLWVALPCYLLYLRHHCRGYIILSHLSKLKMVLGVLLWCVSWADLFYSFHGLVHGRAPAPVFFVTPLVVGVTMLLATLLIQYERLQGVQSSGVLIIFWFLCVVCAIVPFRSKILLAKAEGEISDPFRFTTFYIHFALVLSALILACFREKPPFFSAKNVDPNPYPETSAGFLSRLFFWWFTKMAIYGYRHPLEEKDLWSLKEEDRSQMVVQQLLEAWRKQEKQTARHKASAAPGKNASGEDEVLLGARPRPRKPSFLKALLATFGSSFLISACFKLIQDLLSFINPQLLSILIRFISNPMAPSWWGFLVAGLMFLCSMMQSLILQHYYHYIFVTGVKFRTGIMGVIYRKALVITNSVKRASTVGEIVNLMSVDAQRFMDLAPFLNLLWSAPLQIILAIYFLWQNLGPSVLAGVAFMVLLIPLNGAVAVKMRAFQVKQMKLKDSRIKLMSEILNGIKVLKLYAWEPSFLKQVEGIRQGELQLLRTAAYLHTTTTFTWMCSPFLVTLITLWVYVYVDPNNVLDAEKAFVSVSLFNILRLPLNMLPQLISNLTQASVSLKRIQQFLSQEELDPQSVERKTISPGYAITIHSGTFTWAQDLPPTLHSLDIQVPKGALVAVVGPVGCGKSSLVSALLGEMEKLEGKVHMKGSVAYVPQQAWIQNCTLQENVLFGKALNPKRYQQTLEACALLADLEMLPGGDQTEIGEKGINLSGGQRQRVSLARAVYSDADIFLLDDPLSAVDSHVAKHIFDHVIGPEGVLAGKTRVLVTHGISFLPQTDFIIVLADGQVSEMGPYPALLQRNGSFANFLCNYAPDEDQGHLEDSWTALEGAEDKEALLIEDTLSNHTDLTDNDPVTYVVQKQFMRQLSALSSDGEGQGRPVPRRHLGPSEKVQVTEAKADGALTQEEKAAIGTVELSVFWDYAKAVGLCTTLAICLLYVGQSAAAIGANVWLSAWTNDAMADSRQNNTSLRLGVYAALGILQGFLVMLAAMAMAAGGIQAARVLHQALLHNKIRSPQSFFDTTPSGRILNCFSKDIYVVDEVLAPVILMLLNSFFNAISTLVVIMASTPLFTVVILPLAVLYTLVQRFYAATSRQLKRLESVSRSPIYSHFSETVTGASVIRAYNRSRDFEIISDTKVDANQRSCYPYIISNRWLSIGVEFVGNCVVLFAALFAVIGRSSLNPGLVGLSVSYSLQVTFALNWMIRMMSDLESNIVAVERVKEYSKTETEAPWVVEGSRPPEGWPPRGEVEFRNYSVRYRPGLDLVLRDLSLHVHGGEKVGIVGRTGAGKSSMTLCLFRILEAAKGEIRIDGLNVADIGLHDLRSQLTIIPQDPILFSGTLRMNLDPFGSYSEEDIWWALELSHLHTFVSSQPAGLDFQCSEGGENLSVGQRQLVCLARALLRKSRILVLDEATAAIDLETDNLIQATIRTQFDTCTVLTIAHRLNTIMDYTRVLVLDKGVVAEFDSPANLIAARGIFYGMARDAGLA
Series [8] can be described thus: Ratio of drug concentration at steady state in human at 800 mg administered once per week for 6 weeks through intravesical instillation measured after 6 hrs to IC50 for human MRP4 overexpressed in Sf9 insect cells. In kind it is ADME. The note with it: in vivo, other.
Series [9] can be described thus: AUC (0 to 6 hrs) in human at 800 mg administered once per week for 6 weeks through intravesical instillation measured after 6 hrs. Details: dose 800 mg, time < 6 hr. In kind it is ADME. The following applies: in vivo.
A short description of series [10]: Ratio of drug concentration at steady state in human at 800 mg administered once per week for 6 weeks through intravesical instillation measured after 6 hrs to IC50 for human MRP2 overexpressed in Sf9 insect cells. The note with it: in vivo, other. It counts as ADME.
The nature of series [11]: Ratio of drug concentration at steady state in human at 800 mg administered once per week for 6 weeks through intravesical instillation measured after 6 hrs to IC50 for human MRP3 overexpressed in Sf9 insect cells. In kind it is ADME. The following applies: in vivo, other.
A short description of series [12]: Drug concentration at steady state in human at 800 mg administered once per week for 6 weeks through intravesical instillation measured after 6 hrs. It counts as ADME. The note with it: in vivo, read-out: Css.
The next series deals with Bile salt export pump (Homo sapiens, UniProt O95342). Description: Inhibition of human BSEP overexpressed in Sf9 cell membrane vesicles assessed as uptake of [3H]-taurocholate in presence of ATP measured after 15 to 20 mins by membrane vesicle transport assay. In kind it is ADME, cell-based.
Bile salt export pump, sequence (O95342 whole entry): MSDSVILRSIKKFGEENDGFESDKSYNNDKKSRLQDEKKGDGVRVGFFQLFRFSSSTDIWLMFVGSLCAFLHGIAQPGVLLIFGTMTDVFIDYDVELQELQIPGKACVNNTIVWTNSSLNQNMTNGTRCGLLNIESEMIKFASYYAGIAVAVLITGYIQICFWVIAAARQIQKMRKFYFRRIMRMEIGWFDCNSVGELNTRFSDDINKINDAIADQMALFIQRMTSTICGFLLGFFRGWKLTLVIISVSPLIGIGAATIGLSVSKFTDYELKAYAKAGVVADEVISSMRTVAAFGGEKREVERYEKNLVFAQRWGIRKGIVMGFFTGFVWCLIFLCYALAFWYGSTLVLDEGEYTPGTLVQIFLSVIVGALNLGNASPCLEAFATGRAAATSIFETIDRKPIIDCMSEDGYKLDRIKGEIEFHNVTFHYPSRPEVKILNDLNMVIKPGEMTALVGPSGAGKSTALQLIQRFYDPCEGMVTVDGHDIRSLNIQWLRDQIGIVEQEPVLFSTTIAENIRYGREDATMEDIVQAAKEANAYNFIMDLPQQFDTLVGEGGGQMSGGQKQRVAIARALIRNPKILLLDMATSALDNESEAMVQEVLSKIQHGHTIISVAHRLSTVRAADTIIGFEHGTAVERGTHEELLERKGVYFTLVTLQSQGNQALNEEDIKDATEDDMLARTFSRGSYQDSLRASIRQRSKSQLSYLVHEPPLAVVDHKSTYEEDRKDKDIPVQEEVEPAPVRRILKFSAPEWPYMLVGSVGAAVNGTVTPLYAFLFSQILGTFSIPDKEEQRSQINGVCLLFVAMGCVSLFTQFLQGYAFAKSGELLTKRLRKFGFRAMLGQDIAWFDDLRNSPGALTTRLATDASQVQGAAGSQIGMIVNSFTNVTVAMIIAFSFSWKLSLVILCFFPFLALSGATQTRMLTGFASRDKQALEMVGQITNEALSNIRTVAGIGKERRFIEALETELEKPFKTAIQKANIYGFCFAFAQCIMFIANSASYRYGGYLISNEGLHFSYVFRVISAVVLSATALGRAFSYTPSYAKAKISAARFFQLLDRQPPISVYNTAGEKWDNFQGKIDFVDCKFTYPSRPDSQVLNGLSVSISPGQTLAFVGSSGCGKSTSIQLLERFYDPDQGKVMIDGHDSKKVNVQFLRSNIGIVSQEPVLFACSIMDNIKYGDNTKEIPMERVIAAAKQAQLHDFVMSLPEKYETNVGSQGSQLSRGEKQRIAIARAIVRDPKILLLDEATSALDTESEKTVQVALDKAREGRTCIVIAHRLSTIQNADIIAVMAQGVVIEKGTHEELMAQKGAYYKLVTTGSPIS
Series [13] in a line: Ratio of drug concentration at steady state in human at 800 mg administered once per week for 6 weeks through intravesical instillation measured after 6 hrs to IC50 for human BSEP overexpressed in Sf9 insect cells. In kind it is ADME. The following applies: in vivo, other.
Another series deals with Homo sapiens. The series is described as follows: Drug concentration at steady state in human at 5 to 10 mg, po after 24 hrs. The note with it: in vivo.
Series [14] can be described thus: AUC in human at 5 to 10 mg, po after 24 hrs. It counts as ADME, organism-based. The note with it: in vivo.
Series [15] in a line: Ratio of drug concentration at steady state in human at 25 to 50 mg, po QD after 24 hrs to IC50 for human MRP4 overexpressed in Sf9 insect cells. It counts as ADME, organism-based. The following applies: in vivo.
Series [16] is described as follows: Ratio of drug concentration at steady state in human at 25 to 50 mg, po QD after 24 hrs to IC50 for human BSEP overexpressed in Sf9 insect cells. In kind it is ADME, organism-based. The note with it: in vivo.
Series [17] can be described thus: Drug concentration at steady state in human at 25 to 50 mg, po QD after 24 hrs. In kind it is ADME, organism-based. The note with it: in vivo, read-out: Css.
A short description of series [18]: AUC in human at 25 to 50 mg, po QD after 24 hrs. In kind it is ADME, organism-based. The note with it: in vivo.

Structures are written as SMILES.

ATP-binding cassette sub-family C member 2, sequence (Q92887 whole entry): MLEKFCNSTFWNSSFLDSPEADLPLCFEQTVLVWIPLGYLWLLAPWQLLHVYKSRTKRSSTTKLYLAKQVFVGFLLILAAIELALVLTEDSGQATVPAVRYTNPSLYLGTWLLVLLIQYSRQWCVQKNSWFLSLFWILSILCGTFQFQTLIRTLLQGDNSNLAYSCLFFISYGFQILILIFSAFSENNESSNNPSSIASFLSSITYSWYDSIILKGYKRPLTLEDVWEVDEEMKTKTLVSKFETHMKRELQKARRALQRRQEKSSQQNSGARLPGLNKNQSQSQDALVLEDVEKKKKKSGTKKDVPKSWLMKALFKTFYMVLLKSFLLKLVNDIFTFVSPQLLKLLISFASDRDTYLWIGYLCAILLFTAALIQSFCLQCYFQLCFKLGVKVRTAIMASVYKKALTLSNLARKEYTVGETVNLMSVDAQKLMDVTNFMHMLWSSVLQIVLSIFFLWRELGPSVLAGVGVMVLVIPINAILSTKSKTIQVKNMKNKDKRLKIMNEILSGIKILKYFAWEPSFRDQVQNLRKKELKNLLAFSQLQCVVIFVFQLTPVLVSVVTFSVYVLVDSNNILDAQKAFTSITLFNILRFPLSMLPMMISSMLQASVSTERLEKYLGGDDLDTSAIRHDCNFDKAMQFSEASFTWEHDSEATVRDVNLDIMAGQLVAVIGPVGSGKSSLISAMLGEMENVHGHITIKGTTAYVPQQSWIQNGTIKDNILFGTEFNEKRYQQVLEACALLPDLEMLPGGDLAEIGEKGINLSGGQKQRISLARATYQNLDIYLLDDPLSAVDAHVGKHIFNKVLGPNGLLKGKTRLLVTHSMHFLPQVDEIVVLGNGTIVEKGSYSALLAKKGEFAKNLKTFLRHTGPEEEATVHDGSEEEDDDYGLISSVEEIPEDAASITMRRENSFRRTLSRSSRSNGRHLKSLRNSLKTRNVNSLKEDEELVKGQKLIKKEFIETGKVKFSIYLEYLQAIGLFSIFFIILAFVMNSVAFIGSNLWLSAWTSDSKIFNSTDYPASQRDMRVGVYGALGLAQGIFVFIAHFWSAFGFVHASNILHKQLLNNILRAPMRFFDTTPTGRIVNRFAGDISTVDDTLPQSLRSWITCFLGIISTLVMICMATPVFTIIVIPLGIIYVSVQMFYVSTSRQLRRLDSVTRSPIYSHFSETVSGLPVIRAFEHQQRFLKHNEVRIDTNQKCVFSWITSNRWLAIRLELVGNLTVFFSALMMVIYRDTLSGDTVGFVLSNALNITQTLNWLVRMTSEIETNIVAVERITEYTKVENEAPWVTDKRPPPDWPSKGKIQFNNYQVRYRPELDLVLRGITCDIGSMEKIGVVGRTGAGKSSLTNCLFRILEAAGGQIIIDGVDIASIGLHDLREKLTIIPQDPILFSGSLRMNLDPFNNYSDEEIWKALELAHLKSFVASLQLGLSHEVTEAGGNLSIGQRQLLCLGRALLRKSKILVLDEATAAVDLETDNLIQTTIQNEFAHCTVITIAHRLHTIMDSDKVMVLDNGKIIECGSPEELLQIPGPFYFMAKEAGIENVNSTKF

On to `COC(=O)C1=C(C)NC(C)=C(C(=O)OCCN(C)Cc2ccccc2)C1c1cccc([N+](=O)[O-])c1` (centres undefined) [NICARDIPINE], for which the IC50 in series [1] is 88 µM; in [5], over 133 µM; in [7], over 133 µM. Also, the Ratio in [2] is 0.004; in series [4] it was 0. Besides, the concentration at 24 h in series [3] was found to be 0.03 µM. Further, the AUC at 24 h in series [6] came out at 0.72 µM·h.
In the case of `CCCCC(=O)OCC(=O)[C@]1(O)Cc2c(O)c3c(c(O)c2[C@@H](O[C@H]2C[C@H](NC(=O)C(F)(F)F)[C@H](O)[C@H](C)O2)C1)C(=O)c1c(OC)cccc1C3=O` [VALRUBICIN], the Ratio came to 0.004 in series [8], 0.002 in series [10], 0.002 in series [11] and 0.005 in series [13]. In addition, the IC50 in [1] was 36.8 µM; at Bile salt export pump it was 24.1 µM; in series [5], 64 µM; in series [7], 76.3 µM. The molecule also came in with an AUC at 6 h in series [9] of 0.788 µM·h. For the same molecule, the concentration at 6 h in [12] is 0.131 µM.
For `COc1cc2c(cc1OC)C(=O)C(CC1CCN(Cc3ccccc3)CC1)C2` (centres undefined) [DONEPEZIL], the IC50 in series [1] is 72.9 µM; in series [5], over 133 µM; in series [7], over 133 µM. The same molecule had a Css in the series on Homo sapiens of 0.406 µM. In addition, the AUC at 24 h in [14] was 9.76 µM·h.
`COc1cc(C)c(/C=C/C(C)=C/C=C/C(C)=C/C(=O)O)c(C)c1C` [ACITRETIN]: the IC50 is 49 µM in series [1], 38.2 µM on Bile salt export pump and over 133 µM in series [7]. The values for the Ratio in series [15] and in series [16] were 0.005 and 0.007, respectively. The concentration at 24 h in series [17] is 0.255 µM. In addition, the AUC at 24 h in series [18] amounted to 6.13 µM·h.

One may read the IC50 as the concentration at which inhibition is half-maximal. One may read the AUC as concentration integrated over time.

These data come from ChEMBL document CHEMBL4028801, “A multifactorial approach to hepatobiliary transporter assessment enables improved therapeutic compound development” (Toxicol Sci, 2013).
